In patent publication US7632844B2, “2-hydroxy-6-phenylphenanthridines as PDE-4 inhibitors” (Nycomed GmbH, priority 2002, dated 2009):

molecular target: T1, PDE4B2 (GB no. M97515) (Homo sapiens, UniProt Q07343); assay: Inhibition of PDE4B2 activity, Method b (modified SPA test, recombinant PDE expressed in SF21 cells); type: biochemical; details: 0.5 μM cAMP, read-out: Inhibition of the PDE4 activity, −log IC50 (converted)
T1 construct: made in house; host or cells: SF21 insect cells (baculovirus; virus made in SF9 cells)
T1 sequence (Q07343 1-564 isoform Q07343-2): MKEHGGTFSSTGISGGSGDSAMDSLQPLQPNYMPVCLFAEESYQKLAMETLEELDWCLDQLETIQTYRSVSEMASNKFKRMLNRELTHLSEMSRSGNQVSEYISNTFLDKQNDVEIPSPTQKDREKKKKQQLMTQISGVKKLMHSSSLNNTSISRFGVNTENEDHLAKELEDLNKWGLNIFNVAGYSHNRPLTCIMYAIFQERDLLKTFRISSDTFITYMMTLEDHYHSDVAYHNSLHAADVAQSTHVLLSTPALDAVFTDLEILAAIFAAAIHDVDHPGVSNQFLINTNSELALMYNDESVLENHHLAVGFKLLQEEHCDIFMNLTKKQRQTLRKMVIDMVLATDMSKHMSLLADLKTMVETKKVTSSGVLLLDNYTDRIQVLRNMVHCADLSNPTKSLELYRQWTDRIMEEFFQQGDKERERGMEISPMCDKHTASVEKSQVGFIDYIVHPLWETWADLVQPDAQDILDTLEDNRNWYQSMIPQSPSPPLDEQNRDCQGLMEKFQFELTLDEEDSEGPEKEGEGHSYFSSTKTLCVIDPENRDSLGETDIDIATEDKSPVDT
Protocol: The PDE4B2 (GB no. M97515) was a gift of Prof. M. Conti (Stanford University, USA). It was amplified from the original plasmid (pCMV5) via PCR with primers Rb9 (5′-[…]-3′) and Rb10 (5′-[…]-3′) and cloned into the pCR-Bac vector (Invitrogen, Groningen, NL).
The recombinant baculovirus was prepared by means of homologous recombination in SF9 insect cells. The expression plasmid was cotransfected with Bac-N-Blue (Invitrogen, Groningen, NL) or Baculo-Gold DNA (Pharmingen, Hamburg) using a standard protocol (Pharmingen, Hamburg). Wt virus-free recombinant virus supernatant was selected using plaque assay methods. After that, high-titre virus supernatant was prepared by amplifying 3 times. PDE was expressed in SF21 cells by infecting 2×10^6 cells/ml with an MOI (multiplicity of infection) between 1 and 10 in serum-free SF900 medium (Life Technologies, Paisley, UK). The cells were cultured at 28° C. for 48-72 hours, after which they were pelleted for 5-10 min at 1000 g and 4° C.
The SF21 insect cells were resuspended, at a concentration of approx. 10^7 cells/ml, in ice-cold (4° C.) homogenization buffer (20 mM Tris, pH 8.2, containing the following additions: 140 mM NaCl, 3.8 mM KCl, 1 mM EGTA, 1 mM MgCl2, 10 mM β-mercaptoethanol, 2 mM benzamidine, 0.4 mM Pefablock, 10 μM leupeptin, 10 μM pepstatin A, 5 μM trypsin inhibitor) and disrupted by ultrasonication. The homogenate was then centrifuged for 10 min at 1000×g and the supernatant was stored at −80° C. until subsequent use (see below). The protein content was determined by the Bradford method (BioRad, Munich) using BSA as the standard.
PDE4B2 activity is inhibited by the said compounds in a modified SPA (scintillation proximity assay) test, supplied by Amersham Biosciences (see procedural instructions “phosphodiesterase [3H]cAMP SPA enzyme assay, code TRKQ 7090”), carried out in 96-well microtiter plates (MTP's). The test volume is 100 μl and contains 20 mM Tris buffer (pH 7.4), 0.1 mg of BSA (bovine serum albumin)/ml, 5 mM Mg^2+, 0.5 μM cAMP (including about 50,000 cpm of [3H]cAMP), 1 μl of the respective substance dilution in DMSO and sufficient recombinant PDE (1000×g supernatant, see above) to ensure that 10-20% of the cAMP is converted under the said experimental conditions. […] After a preincubation of 5 min at 37° C., the reaction is started by adding the substrate (cAMP) and the assay is incubated for a further 15 min; after that, it is stopped by adding SPA beads (50 μl). In accordance with the manufacturer's instructions, the SPA beads had previously been resuspended in water, but were then diluted 1:3 (v/v) in water; the diluted solution also contains 3 mM IBMX to ensure a complete PDE activity stop. After the beads have been sedimented (>30 min), the MTP's are analyzed in commercially available luminescence detection devices. The corresponding IC50 values of the compounds for the inhibition of PDE activity are determined from the concentration-effect curves by means of non-linear regression.

IC50 | SMILES
0.182 to 6.03 nM | CCOc1cc2c(cc1OC)C(c1ccc(OC(F)(F)F)cc1)=N[C@@H]1CC[C@@H](O)C[C@H]21 (racemic) [Compound 58, (±)-(2RS,4aRS,10bRS)-9-Ethoxy-8-methoxy-6-(4-trifluoromethoxy-phenyl)-1,2,3,4,4a,10b-hexahydro-phenanthridin-2-ol]
0.182 to 6.03 nM | CCOc1cc2c(cc1OC)C(c1ccc(OCC)c(OCC3CC3)c1)=N[C@@H]1CC[C@@H](O)C[C@H]21 (racemic) [Compound 53, (±)-(2RS,4aRS,10bRS)-6-(3-Cyclopropylmethoxy-4-ethoxy-phenyl)-9-ethoxy-8-methoxy-1,2,3,4,4a,10b-hexahydro-phenanthridin-2-ol]
0.182 to 6.03 nM | COc1cc2c(cc1OC)[C@H]1C[C@H](O)CC[C@H]1N=C2c1ccc(C)cc1 (racemic) [Compound 63, (±)-(2RS,4aRS,10bRS)-8,9-Dimethoxy-6-p-tolyl-1,2,3,4,4a,10b-hexahydro-phenanthridin-2-ol]
0.182 to 6.03 nM | COc1cc2c(cc1OC)[C@H]1C[C@H](O)CC[C@H]1N=C2c1ccc(Oc2ccccc2)cc1 (racemic) [Compound 64, (±)-(2RS,4aRS,10bRS)-8,9-Dimethoxy-6-(4-phenoxy-phenyl)-1,2,3,4,4a,10b-hexahydro-phenanthridin-2-ol]
0.182 to 6.03 nM | CCOc1cc2c(cc1OC)C(c1ccc(Br)cc1)=N[C@@H]1CC[C@@H](O)C[C@H]21 (racemic) [Compound 62, (±)-(2RS,4aRS,10bRS)-6-(4-Bromo-phenyl)-9-ethoxy-8-methoxy-1,2,3,4,4a,10b-hexahydro-phenanthridin-2-ol]
0.182 to 6.03 nM | COc1cc2c(cc1OC)[C@H]1C[C@H](O)CC[C@H]1N=C2c1ccc(OC(F)F)cc1 (racemic) [Compound 49, (±)-(2RS,4aRS,10bRS)-6-[4-(1,1-Difluoro-methoxy)-phenyl]-8,9-dimethoxy-1,2,3,4,4a,10b-hexahydro-phenanthridin-2-ol]
0.182 to 6.03 nM | CCOc1cc2c(cc1OC)C(c1ccc(C(=O)OC)cc1)=N[C@@H]1CC[C@@H](O)C[C@H]21 (racemic) [Compound 50, (±)-4-((2RS,4aRS,10bRS)-9-Ethoxy-2-hydroxy-8-methoxy-1,2,3,4,4a,10 b-hexahydro-phenanthridin-6-yl)-benzoic acid methyl ester]
0.182 to 6.03 nM | COc1cc2c(cc1OC)[C@H]1C[C@H](O)CC[C@H]1N=C2c1ccc(Cl)cc1 (racemic) [Compound 46, (±)-(2RS,4aRS,10bRS)-6-(4-Chloro-phenyl)-8,9-dimethoxy-1,2,3,4,4a,10 b-hexahydro-phenanthridin-2-ol]
0.182 to 6.03 nM | COCCO[C@@H]1CC[C@H]2N=C(c3ccc(OCC4CC4)c(OCC4CC4)c3)c3cc(OC)c(OC)cc3[C@H]2C1 (racemic) [Compound 76, (±)-(2RS,4aRS,10bRS)-6-(3,4-Bis-cyclopropylmethoxy-phenyl)-8,9-dimethoxy-2-(2-methoxy-ethoxy)-1,2,3,4,4a,10b-hexahydro-phenanthridine]

The next lines start with the compound.

SMILES | IC50
COc1cc2c(cc1OC)[C@H]1C[C@H](O)CC[C@H]1N=C2c1ccc(NC(C)=O)cc1 (racemic) [Compound 45, (±)-N-[4-((2RS,4aRS,10bRS)-2-Hydroxy-8,9-dimethoxy-1,2,3,4,4a,10b-hexahydro-phenanthridin-6-yl)-phenyl]-acetamide] | 0.182 to 6.03 nM
CCOc1cc2c(cc1OC)C(c1ccc(OC(F)(F)C(F)F)cc1)=N[C@@H]1CC[C@@H](O)C[C@H]21 (racemic) [Compound 57, (±)-(2RS,4aRS,10bRS)-9-Ethoxy-8-methoxy-6-[4-(1,1,2,2-tetrafluoro-ethoxy)-phenyl]-1,2,3,4,4a,10b-hexahydro-phenanthridin-2-ol] | 0.182 to 6.03 nM
CCOc1cc2c(cc1OC)C(c1ccc(C#N)cc1)=N[C@@H]1CC[C@@H](O)C[C@H]21 (racemic) [Compound 52, (±)-4-((2RS,4aRS,10bRS)-9-Ethoxy-2-hydroxy-8-methoxy-1,2,3,4,4a,10b-hexahydro-phenanthridin-6-yl)-benzonitrile] | 0.182 to 6.03 nM
CCOc1cc2c(cc1OC)C(c1ccc(OC)c(F)c1)=N[C@@H]1CC[C@@H](O)C[C@H]21 (racemic) [Compound 59, (±)-(2RS,4aRS,10bRS)-9-Ethoxy-6-(3-fluoro-4-methoxy-phenyl)-8-methoxy-1,2,3,4,4a,10b-hexahydro-phenanthridin-2-ol] | 0.182 to 6.03 nM
CCOc1cc2c(cc1OC)C(c1ccc(OC(F)F)c(OCC3CC3)c1)=N[C@@H]1CC[C@@H](O)C[C@H]21 (racemic) [Compound 54, (±)-(2RS,4aRS,10bRS)-6-[3-Cyclopropylmethoxy-4-(1,1-difluoro-methoxy)-phenyl]-9-ethoxy-8-methoxy-1,2,3,4,4a,10b-hexahydro-phenanthridin-2-ol] | 0.182 to 6.03 nM
CCOc1cc2c(cc1OC)C(c1ccc(OC(F)F)c(OC(F)F)c1)=N[C@@H]1CC[C@@H](O)C[C@H]21 (racemic) [Compound 55, (±)-(2RS,4aRS,10bRS)-6-[3,4-Bis-(1,1-difluoro-methoxy)-phenyl]-9-ethoxy-8-methoxy-1,2,3,4,4a,10b-hexahydro-phenanthridin-2-ol] | 0.182 to 6.03 nM
CCOc1cc2c(cc1OC)C(c1ccc(F)cc1)=N[C@@H]1CC[C@@H](O)C[C@H]21 (racemic) [Compound 51, (±)-(2RS,4aRS,10bRS)-9-Ethoxy-6-(4-fluoro-phenyl)-8-methoxy-1,2,3,4,4a,10b-hexahydro-phenanthridin-2-ol] | 0.182 to 6.03 nM
CCOc1cc2c(cc1OC)C(c1cccc(OC(F)F)c1)=N[C@@H]1CC[C@@H](O)C[C@H]21 (racemic) [Compound 56, (±)-(2RS,4aRS,10bRS)-6-[3-(1,1-Difluoro-methoxy)-phenyl]-9-ethoxy-8-methoxy-1,2,3,4,4a,10b-hexahydro-phenanthridin-2-ol] | 0.182 to 6.03 nM
CCCOc1cc(C2=N[C@@H]3CC[C@@H](O)C[C@@H]3c3cc(OC)c(OC)cc32)ccc1OC (racemic) [Compound 48, (±)-(2RS,4aRS,10bRS)-8,9-Dimethoxy-6-(4-methoxy-3-propoxy-phenyl)-1,2,3,4,4a,10b-hexahydro-phenanthridin-2-ol] | 0.182 to 6.03 nM
CCCCOc1ccc(C2=N[C@@H]3CC[C@@H](O)C[C@@H]3c3cc(OC)c(OC)cc32)cc1 (racemic) [Compound 43, (±)-(2RS,4aRS,10bRS)-6-(4-Butoxy-phenyl)-8,9-dimethoxy-1,2,3,4,4a,10b-hexahydrophenanthridin-2-ol] | 0.182 to 6.03 nM
CCOc1cc2c(cc1OC)C(c1cccc(F)c1)=N[C@@H]1CC[C@@H](O)C[C@H]21 (racemic) [Compound 61, (±)-(2RS,4aRS, 10bRS)-9-Ethoxy-6-(3-fluoro-phenyl)-8-methoxy-1,2,3,4,4a,10b-hexahydro-phenanthridin-2-ol] | 0.182 to 6.03 nM
CCOc1cc2c(cc1OC)C(c1ccc(F)c(F)c1)=N[C@@H]1CC[C@@H](O)C[C@H]21 (racemic) [Compound 60, (±)-(2RS,4aRS,10bRS)-6-(3,4-Difluoro-phenyl)-9-ethoxy-8-methoxy-1,2,3,4,4a,10b-hexahydro-phenanthridin-2-ol] | 0.182 to 6.03 nM
